The test system of assay [1] is T-Rex 293 cell line SC3 cells having increased expression of androgen receptor protein due to exposure to doxycycline. The experiment in a line: Cellular growth inhibition, T-Rex 293 SC3 cells with doxycycline-induced androgen receptor (CellTiter-Glo 2.0, 72 hours). The class given is cell-based.
In assay [2] the test system is T-Rex 293 cell line SC3 cells lacking increased expression of androgen receptor protein. As to the kind of experiment: Cellular growth inhibition, T-Rex 293 SC3 cells without doxycycline (CellTiter-Glo 2.0, 72 hours). The class given is cell-based. The settings on record: 72 h, T-Rex 293 SC3 cells not exposed to doxycycline (no increased androgen receptor expression). For orientation: ATP-based viability assays read luminescence as a measure of living cells.

A further assay concerns VCaP cell tumors. As to the kind of experiment: Castrate VCaP tumor xenograft study, tumor growth. The settings on record: castrated CB17.SCID mice bearing VCaP tumors, oral gavage; same mg/kg dose and dosing frequency for Compound II-5 and Compound A, FIG. 8. The class given is in vivo. As to the method: Compound II-5 was evaluated for in vivo performance when administered to CB17.SCID mice bearing VCaP cell tumors.
5M VCaP cells were subcutaneously implanted into CB17.SCID mice in 50% Matrigel (Corning). Mice were castrated under anesthesia once tumor volumes reached 100 mm^3. Tumors were then allowed to reach an average of approximately 150 mm^3 before randomization into efficacy arms. Tumors were measured twice weekly for Tumor Growth Inhibition (TGI) calculation. For PK/PD analysis, tumors were allowed to reach an average of 400 mm^3, before dosing the mice with test compound by oral gavage (n=5) for seven days. Mice were sacrificed 24 hours following the final dose, and tumors were harvested for downstream analysis. Plasma samples were collected from all dosed mice 2 hours following the final dose to determine test compound exposure by LC-MS/MS. Test compounds used in the experiment were (i) Compound II-5 and (ii) a commercially available nonsteroidal antiandrogen medication that has been approved by the United States Food and Drug Administration for treatment of prostate cancer (hereinafter “Compound A”).

The target of assay [3] is T1, androgen receptor and BRD4 protein (Homo sapiens, UniProt O60885+P10275).
T1 construct: Tumors obtained from the Castrate VCaP Model were lysed; from tissue; host or cells: VCaP tumour xenografts grown in castrated CB17.SCID mice
As to the kind of experiment: Tumor TR-FRET trimer assay on tumors of the PK/PD Castrate VCaP model. The settings on record: PK/PD Castrate VCaP Tumor Xenograft Model. The class given is in vivo, CB17.SCID mice. As for the experimental part:
5M VCaP cells were subcutaneously implanted into CB17.SCID mice in 50% Matrigel (Corning). Mice were castrated under anesthesia once tumor volumes reached 100 mm^3. Tumors were then allowed to reach an average of approximately 150 mm^3 before randomization into efficacy arms. Tumors were measured twice weekly for Tumor Growth Inhibition (TGI) calculation. For PK/PD analysis, tumors were allowed to reach an average of 400 mm^3, before dosing the mice with test compound by oral gavage (n=5) for seven days. Mice were sacrificed 24 hours following the final dose, and tumors were harvested for downstream analysis. Plasma samples were collected from all dosed mice 2 hours following the final dose to determine test compound exposure by LC-MS/MS. […] the United States Food and Drug Administration for treatment of prostate cancer ([…]).
Tumors obtained from the Castrate VCaP Model were lysed in Cell Signaling Technology lysis buffer supplemented with protease/phosphatase inhibitors and nuclease. Each tumor was lysed in 10 μL of lysis buffer per mg of tumor and placed in a TissueLyser for 4 minutes at 20 Hz. Each sample was spun down at 16000×g for 10 minutes, the supernatant was removed, and a BCA assay was run to quantify the total protein concentration in each sample. In a white opaque 384 well plate each sample was diluted in supplemented CST lysis buffer to 48 and 24 μg of protein in a total volume of 16 μL. 4 μL of a 1:1 mixture of anti-androgen receptor and anti-BRD4 antibodies with donor and acceptor fluorophores were mixed into each well containing tumor samples. The plate was spun down at 300×g for one minute, placed on a plate shaker at 400 RPM for 10 minutes, spun down at 300×g for one minute, then sealed with a plate seal and stored overnight. Approximately 16 hours after adding antibodies, the plate was read on an Envision plate reader. The ratiometric value of each well was calculated by dividing the acceptor signal by the donor signal and multiplying by 10,000.
(In TR-FRET formats the signal depends on donor and acceptor labels being close together.)

The results in this text go back to patent US12668599B2, “Heterobifunctional compounds and methods of treating disease” (Halda Therapeutics OpCo, Inc., priority 2023, dated 2026).

T1 sequence (P10275 whole entry, other chains not shown): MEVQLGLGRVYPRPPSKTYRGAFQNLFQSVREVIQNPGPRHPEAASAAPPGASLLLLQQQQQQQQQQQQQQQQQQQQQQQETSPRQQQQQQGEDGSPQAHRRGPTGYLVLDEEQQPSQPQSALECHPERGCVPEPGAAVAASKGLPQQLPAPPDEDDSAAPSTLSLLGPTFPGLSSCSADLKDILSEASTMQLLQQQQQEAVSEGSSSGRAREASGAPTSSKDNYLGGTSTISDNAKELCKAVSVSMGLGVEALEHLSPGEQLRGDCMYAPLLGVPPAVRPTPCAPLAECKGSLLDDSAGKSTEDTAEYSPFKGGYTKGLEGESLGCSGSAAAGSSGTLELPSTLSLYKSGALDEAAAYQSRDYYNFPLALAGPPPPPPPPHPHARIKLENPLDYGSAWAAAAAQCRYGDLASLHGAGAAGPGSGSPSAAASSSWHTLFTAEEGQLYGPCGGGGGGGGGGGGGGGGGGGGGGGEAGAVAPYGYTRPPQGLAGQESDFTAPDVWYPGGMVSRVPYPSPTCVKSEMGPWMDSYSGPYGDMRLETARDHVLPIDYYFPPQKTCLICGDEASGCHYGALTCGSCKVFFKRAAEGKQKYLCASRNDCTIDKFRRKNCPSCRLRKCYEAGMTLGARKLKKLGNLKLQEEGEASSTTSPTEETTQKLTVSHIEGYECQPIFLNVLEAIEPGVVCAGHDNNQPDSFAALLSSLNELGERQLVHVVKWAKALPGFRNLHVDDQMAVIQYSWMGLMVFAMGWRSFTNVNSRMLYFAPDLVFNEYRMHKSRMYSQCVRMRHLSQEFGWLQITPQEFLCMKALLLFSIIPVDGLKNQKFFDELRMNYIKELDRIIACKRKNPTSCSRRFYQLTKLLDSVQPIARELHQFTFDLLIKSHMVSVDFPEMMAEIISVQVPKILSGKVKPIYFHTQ

What is called GI50 is the concentration that inhibits growth by half. Higher therefore signals less potent growth inhibition. On to `COc1cc(O[C@H]2C(C)(C)[C@H](NC(=O)c3cnc(N4CCC5(CC4)CC(Oc4ccc(C6=N[C@@H](Cc7ncco7)c7nnc(C)n7-c7sc(C)c(C)c76)cc4)C5)nc3)C2(C)C)ccc1C#N` [II-5, N-[(1r,3r)-3-(4-cyano-3-methoxy-phenoxy)-2,2,4,4-tetramethyl-cyclobutyl]-2-[2-[4-[(9S)-4,5,13-trimethyl-9-(oxazol-2-ylmethyl)-3-thia-1,8,11,12-tetrazatricyclo[8.3.0.0^2,6]trideca-2 (6),4,7,10,12-pentaen-7-yl]phenoxy]-7-azaspiro[3.5]nonan-7-yl]pyrimidine-5-carboxamide], for which the “Ratio of GI50's” value in assay [1] (GI50 of the top compound in the pair divided by GI50 of the lower compound, T-Rex 293 SC3 cells with doxycycline-induced androgen receptor) is reported as 1. The 50% growth inhibitory concentration (GI50) in assay [1] (T-Rex 293 SC3 cells with 10 ng/ml doxycycline (increased androgen receptor expression), 72 hours, CellTiter-Glo 2.0) was under 500 nM; in assay [2], under 500 nM. For the same molecule, in the assay on VCaP cell tumors, the “tumor growth inhibition (tumor volume)” value was “more effective in reducing tumor growth in this experiment than Compound A”. For the same molecule, the “ternary complex formation between compound, androgen receptor, and BRD4 protein in tumors” value in assay [3] (oral gavage for seven days, varying doses, FIG. 4) is on record as “observed”; in assay [3] (Compound II-5 and Compound B at the same dose and dosing frequency, FIG. 20) it was “observed”.
